Assay results as given in patent US20240400529A1, “COMPOSITIONS AND METHODS FOR THE PREVENTION AND/OR TREATMENT OF MITOCHONDRIAL DISEASE, INCLUDING FRIEDREICH'S ATAXIA” (Stealth BioTherapeutics Inc., priority 2019, published 2024).
Entries after “also recorded” stand apart in the source; their conditions may differ.

Experiments:
[1] = system: frataxin deficient fibroblasts (Friedreich's ataxia patient, GM03665); format: cell-based
[2] = system: HepG2 human hepatocarcinoma cells; experiment: Rotenone ATP Assay (Complex I by-pass); format: cell-based; conditions: summary statements also cover the Oxygraph assay
Method: This assay has been adapted from Haefeli R H, Erb M, Gemperli A C, Robay D, Courdier Fruh I, et al. (2011) NQO1-Dependent Redox Cycling of Idebenone: Effects on Cellular Redox Potential and Energy Levels. PLOS ONE 6 (3): e17963. HepG2 human hepatocarcinoma cells were co-incubated with the electron transport chain Complex I toxin rotenone+/−compounds of interest and the corresponding effect on ATP synthesis was measured with a bioluminescent substrate.
In brief, HepG2 cells were plated at 25,000 cells per well in low glucose (1 gram/Liter) DMEM medium+10% fetal calf serum and incubated for 24 hours. The following day, the media was decanted and subsequently replaced with glucose free/serum free DMEM which has been supplemented with 50 micromolar rotenone and compound of interest. Serial dilutions of compound were prepared in 3× dilutions beginning at 25 micromolar. The cells were incubated for 60 minutes in a humidified tissue culture incubator. Following incubation, ATP levels were quantified via bioluminescent assay (Promega […] Glo Assay kit) and readings were captured on a standard microplate reader.
ATP bioluminescence is plotted versus the log of compound of interest and data were used to generate EC50 values. Curve fitting was performed using a sigmoidal dose response curve fit function (GraphPad Prism software).
Robustness of curve fit was assessed as a quality control measure, with an R squared value of at least 0.80 being required for a successful curve fit. Compounds of interest showing an increase in ATP bioluminescence relative to vehicle control were verified in an independent biological replicate of n=3 technical replicates per dose.
This assay is a direct measure of the ability of compounds of interest to restore ATP production under conditions of inhibition of Complex I of the mitochondrial electron transport chain. As the majority of ATP produced via the electron transport chain is thought to derive from Complex I activity, significant impairment in Complex I function has dire biological consequences. Of note, Complex I mutations are thought to drive pathophysiology in multiple mitochondrial diseases, including Leigh syndrome and Leber's Hereditary Optic Neuropathy (LHON), while diminished Complex I activity and the resultant attenuation of ATP production has been shown in neurodegenerative diseases, including Friedreich's Ataxia, Parkinson's Disease and Huntington's Disease.

[3] = system: GM03665 cells (fibroblasts from a subject with Friedreich's ataxia); experiment: RSL3 Toxicity Assay (RSL3 Assay); format: cell-based, human
Method: In brief, GM03665 cells (Coriell Institute) were seeded in 96-well plates (Sarstedt) in DMEM cell culture media containing 10% Fetal Bovine serum and 1% Penicillin-Streptomycin (Pen-Strep) antibiotic mix at the amount of 2×10^4/mL (100 μL or 2×10^3 cells per well). Cells were left to rest overnight at 37° C. in a humidified atmosphere with 5% CO2 to allow attachment of the cells to the culture plate. Test compounds were prepared as DMSO stocks (10 mM) and were serially diluted in cell culture media to obtain 2× working solutions. Cell media was discarded and replaced by 50 μL of test compound solutions or cell media with vehicle for control wells. Within 15 minutes, 2× working solution (4 μM) of 1S,3R-RSL3 (CAS #1219810-16-8, Sigma-Aldrich) (diluted from 5 mM DMSO stock in cell culture media) was added. Final reaction volume was 100 μL and final DMSO concentration in reaction was kept below 0.2% (v/v) and equal in all wells. Final RSL3 concentration was 2 μM and test compound final concentrations in reaction were up to 1000 nM. After 24 hours of incubation cell viability was assessed by MTT test. MTT (Sigma-Aldrich) solution 1 mg/mL in 1×PBS (pH=7,4) was prepared 1 hour before the assay and filtered through Filtropur S 0.2 filters (Sarstedt). Cell media with test compounds was discarded and 100 μL of MTT solution was added to cells. The plates were incubated for 2 hours at +37° C. Thereafter, the MTT solution was removed and 100 μL of isopropanol was added to dissolve sediment. Absorption at 570 and 650 nm was measured using Hidex Sense microplate reader.

[4] = system: intact HepG2 cells; experiment: Rotenone Oxygraph Assay (high-resolution respirometry); format: cell-based, human; conditions: 1 μM rotenone, 10 μM compound
Method: The Oxygraph-2k (O2k, OROBOROS INSTRUMENTS, Austria) was used for measurements of respiration of intact cells. The respirometry was performed in Dulbecco's Modified Eagle Medium (DMEM) high glucose without supplements. All experiments were performed at 37° C.
HepG2 cells (ATCC collection code HB-8065™) were cultured in 10 cm^2 culture dishes in DMEM high glucose medium supplemented with 10% fetal bovine serum (FBS) and 100 units/mL penicillin and 100 μg/mL streptomycin until approximately 90% confluence was reached. Immediately prior to performing the respirometric assay, the cells were washed with media without FBS, trypsinized and resuspended in DMEM high glucose without FBS.
The final concentration of intact cells in the O2k-chamber was 0.5.10^6/mL. After stabilization of respiration, the Complex I inhibitor, rotenone, at 1 μM final concentration was added to inhibit electron flux via Complex I. Then, compound to be tested was added at 10 μM final concentration, and the change in respiration rate of intact cells was monitored.

[5] = system: Nrf-2 responsive genes; experiment: Nrf-2 Activation Assay (Nrf-2 Assay); format: cell-based, human; conditions: FIG. 7; 1 μM, 24 hours
Method: This assay was developed internally and was designed to determine if the novel test compounds disclosed herein active Nrf-2 and thereby promote resolution of inflammation by the mechanism believed to be responsible for the activity of omaveloxolone.
Briefly, GM03665 Eriedreich Ataxia patient fibroblasts were grown in 12 Well Plates (TC Cell+F) (Sarstedt, Nümbrecht Germany), at a density of 12×10^4 cells/per well in DMEM/F12 (Gibco, ThermoFisher Scientific, Waltham, MA, USA) cell media supplemented with 10% FBS and 1% Pen/Strep. Cells were left to rest overnight at 37° C. in a humidified atmosphere with 5% CO2 to allow attachment of the cells to the culture plate. Before continuing assay visual inspection of each well was done by light microscopy to detect any possible bacterial and fungal contamination. […] After incubation, cell media was removed and total RNA from the cells was isolated using E.Z.N.A.® Total RNA Kit I (Omega Bio-tek, Norcross, Georgia, USA) spin columns, and first-strand cDNA synthesis was carried out using a High Capacity cDNA Reverse Transcription Kit (Applied Biosystems™, Foster City, CA) following the manufacturer's instructions. qPCR analysis of gene expression was performed by mixing SYBR® Green Master Mix (Applied Biosystems™) with synthesized cDNA and forward and reverse primers. […] (60 cycles), and 95° C. for 60 seconds, followed by melt curve analysis at 72-95° C., 0.3° C./sec. The relative expression levels for each gene were calculated with the ΔΔCt method and normalized to the expression of REEP5 and SNRPD3 genes.

[6] = biological target: lipoxygenase-15 enzyme (Glycine max (Soybean) (Glycine hispida), UniProt P08170); experiment: Lipoxygenase-15 Assay (LO-15 Assay); format: biochemical; conditions: reduced forms tested

SMILES: CC1=C(C)C(=O)C(CC[C@](C)(O)CCCCCCCCC(F)(F)F)=C(C)C1=O [Compound N, (R)-2,3,5-trimethyl-6-(12,12,12-trifluoro-3-hydroxy-3-methyldodecyl)cyclo-hexa-2,5-diene-1,4-dione]
- protection from BSO induced cell death / ferroptosis, in words [1]: possess both activities; also recorded: able to prevent ferroptotic cell death; also recorded: active
- Complex I by-pass activity / restoring ATP production, in words [2]: possess both activities
- activity in the RSL3 Assay, in words [3]: active; also recorded: able to prevent ferroptotic cell death
- Rotenone Oxygraph Assay % Increase (Table 7) [4]: 44.8 +/− 10.3%
- activation of Nrf-2 responsive genes / pathway, in words [5]: do not activate
- lipoxygenase-15 inhibition, in words [6]: effective inhibitors
